Results published in PMC7226963, “CCN-Based Therapeutic Peptides Modify Pancreatic Ductal Adenocarcinoma Microenvironment and Decrease Tumor Growth in Combination with Chemotherapy” (Cells, 2020).
Read-outs that look alike come from different tables or passages of the source. Blank lines part the entries; values can stand above or below the molecule they belong to.

Tests used:
[1] = Gemcitabine and metabolites in tumor and plasma, with or without BLR200 (HPLC-MS); details: for Change of concentration (tumor/plasma ratio) in BLR200-treated mice: BLR200 10 µg/kg i.p. every other day from day 11, 4 treatments, gemcitabine 100 mg/kg i.v. single bolus day 17, 30 min and 1 h, n = 4, not statistically significant
Procedure: FC1199-bearing mice were treated i.p with BLR200 (10 µg/kg) from day 11 for a total of 4 treatments, every other day. On day 17, mice were treated with gemcitabine (100 mg/kg, i.v., single bolus). After 30 min and 1 h, plasma and tumors were collected for HPLC measurement of gemcitabine and metabolites. The plasma fraction added with 10 µL tetrahydrouridine (THU) 2.5 mg/mL was immediately separated by centrifugation at 3200× g for 15 min at 4 °C and stored at −20 °C until analysis. Tumors were immediately frozen in liquid nitrogen and stored at −20 °C until analysis. Extraction and analysis of gemcitabine (dFdc, dFdCTP, and dFdU) in tumors and plasma were carried out according to Bapiro et al. [27].
Briefly, tumors were weighted, spiked with 2′-deossicitidine as the internal standard (IS) at a final concentration of 1 ng/mg, and homogenized with ice-cold acetonitrile (ACN) 50% (v/v) containing THU 25 µg/mL in a Precellys Evolution homogenizer (Bertin Technologies S.A.S., Montigny-le-Bretonneux, France). Fifty microliters of homogenate were added with 200 µL ACN 50% (v/v), vortexed, and centrifuged at 13,200 rpm for 10 min at 4 °C. The supernatant was dried under N2 flux and the residue reconstituted with 100 µL of milliQ water. Concerning plasma, 25 µL were spiked with 1 µL of 10 µg/mL of IS and processed in the same way as tumors. The reconstituted tumors and plasma extracts were analyzed by injecting 2 µL in a UHPLC System connected to a LCMS-8060 (Shimadzu Scientific Instruments, Columbia, MD, USA) with a dual ion source. […] The mass spectrometer worked with an electrospray ionization source operating both in the negative and positive Multiple Reaction Monitoring mode, quantifying target ions m/z 264→59.25 for gemcitabine (positive), m/z 502→158.9 for dFdCTP (negative), m/z 263.1→220 for dFdU (negative), and m/z 228.1→112.05 for IS (positive). The lower limit of quantitation (LOQ) was 0.2 ng/mg for gemcitabine, 0.4 ng/mg for dFdU, and 0.5 ng/mg for dFdCTP in tumor samples, while it was 0.01 µg/mL for gemcitabine and 0.02 µg/mL for dFdU in plasma samples.

FC1199 cells = assay: FC1199 proliferation assay (crystal violet); type: cell-based, murine; details: Mus musculus, 72 h, 72 h incubation, mean and SD of two experiments, read-out: IC50 of gemcitabine on FC1199 cell proliferation
Procedure: FC1199 were seeded into 96-well plates in DMEM supplemented with 5% FCS. At 24 h after seeding, cells were exposed to increasing concentrations of BLR100 and BLR200 alone or in combination with increasing concentrations of gemcitabine. After a 72 h incubation, cells were fixed and stained with crystal violet solution (Sigma–Aldrich, Merck Life Science, Milano, Italy). The staining was eluted with a 1:1 ethanol/0.1 M sodium citrate solution, and the absorbance at 595 nm was measured. Each condition was tested in triplicate.

FC1199 orthotopic tumors = assay: Orthotopic FC1199 PDAC model: tumor burden (pancreas weight) and ascites; type: in vivo, C57BL/6 mice; details: peptides 4.5 µg/kg i.p. from day 11 or gemcitabine 40 mg/kg i.v.; n = 7
Procedure: Six- to eight-week old female C57BL/6 mice (Charles River Laboratories, Lecco, Italy) were maintained under specific-pathogen-free conditions, with constant temperature and humidity, and handled using aseptic procedures. FC1199 cells (5 × 10^4) were implanted orthotopically in the pancreas as described. Gemcitabine was administered i.v. at 40 mg/kg (see scheme in Figure 4A). Control groups received the same volume of vehicle. Mice were weighed every other day as a measure of drug toxicity. […] Tumor burden was evaluated at the end of the experiment, as pancreas weight. Peritoneal ascitic fluid was collected with a syringe and the volume recorded. Animals with a collectable peritoneal fluid (≥100 µL) were considered positive for ascites. Liver of mice were analyzed for macroscopic metastases, and no metastatic foci was detected in any group.

KPC tumor = details: LSL-KrasG12D/+;LSL-Trp53R172H/+;Pdx-1-Cre (KPC) mice; cited from earlier work
Source text: (§1) CCN2 has recently been proposed as a target for PDAC therapy. […] FG-3019 (pamrevlumab) is currently in a Phase 3 clinical trial to evaluate its efficacy and safety as neoadjuvant treatment in combination with gemcitabine plus nab-paclitaxel in the treatment of locally advanced, unresectable pancreatic cancer.

PANC-1 orthotopic = PANC-1 orthotopic preclinical model; cited from earlier work
Source text: as §1

Molecule: Nc1ccn([C@@H]2O[C@H](COP(=O)(O)OP(=O)(O)OP(=O)(O)O)[C@@H](O)C2(F)F)c(=O)n1 [dFdCTP, gemcitabine triphosphate]
Concentration of the metabolite in tumors and plasma ([1]; gemcitabine 100 mg/kg i.v. single bolus, with or without BLR200 10 µg/kg, 30 min and 1 h, LOQ 0.5 ng/mg in tumor): undetectable in both groups

Change of concentration (tumor/plasma ratio) in BLR200-treated mice [1]: small increase
Molecule: O=c1ccn([C@@H]2O[C@H](CO)[C@@H](O)C2(F)F)c(=O)[nH]1 [dFdU, 2′,2′-difluorodeoxyuridine]

Change of concentration (tumor/plasma ratio) in BLR200-treated mice [1]: small increase
Molecule: Nc1ccn([C@@H]2O[C@H](CO)[C@@H](O)C2(F)F)c(=O)n1 [gemcitabine, Gemcitabine]
IC50 (FC1199 cells; gemcitabine alone, DMEM 5% FCS, absorbance 595 nm): 13.5 ± 4.6 nM
IC50 (FC1199 cells; gemcitabine with BLR100 20 nM): 13.2 ± 3.9 nM
IC50 (FC1199 cells; gemcitabine with BLR100 100 nM): 11.9 ± 3.7 nM
Effect on tumor growth as monotherapy, late start (FC1199 orthotopic tumors): only a marginal effect on tumor growth

B1: FG-3019: CCN2-targeting mAb (antibody, chains of the INN, looked up, V domains shown)
VH: EGQLVQSGGGLVHPGGSLRLSCAGSGFTFSSYGMHWVRQAPGKGLEWVSGIGTGGGTYSTDSVKGRFTISRDNAKNSLYLQMNSLRAEDMAVYYCARGDYYGSGSFFDCWGQGTLVTVSS
VL: DIQMTQSPSSLSASVGDRVTITCRASQGISSWLAWYQQKPEKAPKSLIYAASSLQSGVPSRFSGSGSGTDFTLTISSLQPEDFATYYCQQYNSYPPTFGQGTKLEIK
Tumor response to gemcitabine (KPC tumor): enhanced tumor response
Tumor growth and metastasis (PANC-1 orthotopic): inhibited tumor growth and metastasis
